# Patent US11051515B2, “3-acyl-benzamides and their use as herbicides” (Bayer Aktiengesellschaft, priority 2017, dated 2021)
# What was measured:
# [1] = test system: VIOTR; assay: Post-emergence action against VIOTR; assay type: in vivo, Viola tricolor; conditions: for Post-emergence action against VIOTR: dosage 80 g/ha
# Outline: (§1)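 Post-emergence foliar spray on greenhouse plants at the one-leaf stage, using wettable-powder or emulsion-concentrate formulations in water (600 to […], plus 0.2% wetting agent). Damage scored by eye roughly 3 weeks later against untreated plants: 0% = like control, 100% = dead.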
# [2] = test system: PHBPU; assay: Post-emergence action against PHBPU; assay type: in vivo, Pharbitis purpurea; conditions: post-emergence, dosage 80 g/ha
# Outline: as §1
# [3] = test system: ALOMY; assay: Pre-emergence action against ALOMY; assay type: in vivo, Alopecurus myosuroides; conditions: for Pre-emergence action against ALOMY (herbicidal activity in percent): dosage 320 g/ha, scored visually after 3 weeks vs untreated controls, 100% = plants have died, 0% = like control plants
# Outline: (§2)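 Seeds sown in sandy loam in wood-fiber pots and covered with soil. Greenhouse growth; visual damage scored after 3 weeks versus untreated controls (100% = dead, 0% = like control).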
# [4] = test system: CYPES; assay: Pre-emergence action against CYPES; assay type: in vivo, Cyperus esculentus; conditions: for Herbicidal efficacy against CYPES: 80 g of a.i./ha; for Pre-emergence action against CYPES (herbicidal activity): dosage 320 g/ha, scored visually after 3 weeks vs untreated controls
# Outline: as §2
# [5] = test system: AMARE; assay: Pre-emergence action against AMARE; assay type: in vivo, Amaranthus retroflexus; conditions: pre-emergence, dosage 320 g/ha, scored visually after 3 weeks vs untreated controls
# Outline: as §2
# [6] = test system: VERPE; assay: Pre-emergence action against VERPE; assay type: in vivo, Veronica persica; conditions: Dosage 320 g/ha, pre-emergence
# Outline: as §2
# [7] = test system: VERPE; assay: Post-emergence action against VERPE; assay type: in vivo, Veronica persica; conditions: dosage 80 g/ha
# Outline: as §1
# [8] = test system: VIOTR; assay: Pre-emergence action against VIOTR; assay type: in vivo, Viola tricolor; conditions: for Pre-emergence action against VIOTR: Dosage 320 g/ha
# Outline: as §2
# [9] = test system: SETVI; assay: Post-emergence action against SETVI; assay type: in vivo, Setaria viridis; conditions: for Post-emergence action against SETVI (herbicidal action in percent): dosage 80 g/ha, visual assessment about 3 weeks after treatment vs untreated controls
# Outline: as §1
# [10] = test system: STEME; assay: Pre-emergence action against STEME; assay type: in vivo, Stellaria media; conditions: for Pre-emergence action against STEME: Dosage 320 g/ha
# Outline: as §2
# [11] = test system: ABUTH; assay: Pre-emergence action against ABUTH; assay type: in vivo, Abutilon theophrasti; conditions: pre-emergence, dosage 320 g/ha, scored visually after 3 weeks vs untreated controls
# Outline: as §2
# [12] = test system: ECHCG; assay: Pre-emergence action against ECHCG; assay type: in vivo, Echinochloa crus-galli; conditions: pre-emergence, dosage 320 g/ha, scored visually after 3 weeks vs untreated controls
# Outline: as §2
# [13] = test system: POLCO; assay: Pre-emergence action against POLCO; assay type: in vivo, Polygonum convolvulus; conditions: Dosage 320 g/ha, pre-emergence
# Outline: as §2
# [14] = test system: STEME; assay: Post-emergence action against STEME; assay type: in vivo, Stellaria media; conditions: for Post-emergence action against STEME: dosage 80 g/ha
# Outline: as §1
# [15] = test system: ECHCG; assay: Post-emergence action against ECHCG; assay type: in vivo, Echinochloa crus-galli; conditions: post-emergence, dosage 80 g/ha, visual assessment about 3 weeks after treatment vs untreated controls
# Outline: as §1
# [16] = test system: POLCO; assay: Post-emergence action against POLCO; assay type: in vivo, Polygonum convolvulus; conditions: post-emergence, dosage 80 g/ha
# Protocol: (§3) Seeds of monocotyledonous and dicotyledonous weed and crop plants are laid out in sandy loam soil in wood-fiber pots, covered with soil and cultivated in a greenhouse under good growth conditions. 2 to 3 weeks after sowing, the test plants are treated at the one-leaf stage. The compounds of the invention, formulated in the form of wettable powders (WP) or as emulsion concentrates (EC), are then sprayed onto the green parts of the plants in the form of an aqueous suspension or emulsion at a water application rate equating to […], with addition of 0.2% wetting agent. After the test plants have been left to stand in the greenhouse under optimal growth conditions for about 3 weeks, the action of the preparations is assessed visually in comparison to untreated controls (herbicidal action in percent (%): 100% activity=the plants have died, 0% activity=like control plants). […] At the same time, inventive compounds leave Gramineae crops such as barley, wheat, rye, millet/Sorghum, corn or rice virtually undamaged when applied post-emergence, even at high active ingredient dosages. In addition, some substances are also harmless to dicotyledonous crops such as soya, cotton, oilseed rape, sugar beet or potatoes. Some of the compounds according to the invention have high selectivity and are therefore suitable for controlling unwanted vegetation in agricultural crops by the post-emergence method. The data of Tables B18 to B34 below illustrate, in an exemplary manner, the […] herbicidal action of the compounds according to the invention, the herbicidal activity being stated in percent.
# [17] = test system: MATIN; assay: Post-emergence action against MATIN; assay type: in vivo, Matricaria inodora; conditions: for Post-emergence action against MATIN (herbicidal action in percent): dosage 80 g/ha, visual assessment about 3 weeks after treatment vs untreated controls
# Outline: as §1
# [18] = test system: SETVI; assay: Pre-emergence action against SETVI; assay type: in vivo, Setaria viridis; conditions: for SETVI (Table B8, pre-emergence herbicidal activity): dosage 320 g/ha, scored visually after 3 weeks vs untreated controls
# Outline: as §2
# [19] = test system: AMARE; assay: Post-emergence action against AMARE; assay type: in vivo, Amaranthus retroflexus; conditions: for Post-emergence action against AMARE (herbicidal action in percent): dosage 80 g/ha, visual assessment about 3 weeks after treatment vs untreated controls
# Outline: as §1
# [20] = test system: MATIN; assay: Pre-emergence action against MATIN; assay type: in vivo, Matricaria inodora; conditions: for Pre-emergence action against MATIN: Dosage 320 g/ha
# Outline: as §2
# [21] = test system: ABUTH; assay: Post-emergence action against ABUTH; assay type: in vivo, Abutilon theophrasti; conditions: for Post-emergence action against ABUTH (herbicidal action in percent): dosage 80 g/ha, visual assessment about 3 weeks after treatment vs untreated controls
# Outline: as §1
# [22] = test system: AVEFA; assay: Post-emergence action against AVEFA; assay type: in vivo, Avena fatua; conditions: post-emergence, dosage 80 g/ha, visual assessment about 3 weeks after treatment vs untreated controls
# Protocol: as §3
# [23] = test system: CYPES; assay: Post-emergence action against CYPES; assay type: in vivo, Cyperus esculentus; conditions: post-emergence, dosage 80 g/ha, visual assessment about 3 weeks after treatment vs untreated controls
# Outline: as §1
# [24] = test system: AVEFA; assay: Pre-emergence action against AVEFA; assay type: in vivo, Avena fatua; conditions: dosage 320 g/ha, scored visually after 3 weeks vs untreated controls
# Outline: as §2
# [25] = test system: PHBPU; assay: Pre-emergence action against PHBPU; assay type: in vivo, Pharbitis purpurea; conditions: Dosage 320 g/ha, pre-emergence
# Outline: as §2
# [26] = Table V17, post-emergence, 5 g of a.i./ha
# [27] = Table V19, post-emergence, 5 g of a.i./ha
# [28] = Table V10, pre-emergence, 80 g of a.i./ha
# [29] = Table V21, post-emergence, 5 g of a.i./ha
SMILES,Post-emergence action against VIOTR [1],Post-emergence action against PHBPU [2],Pre-emergence action against CYPES (herbicidal activity) [4] [%],Pre-emergence action against AMARE (herbicidal activity) [5] [%],Pre-emergence action against VERPE [6] [%],Post-emergence action against VERPE [7],Pre-emergence action against VIOTR [8] [%],Post-emergence action against SETVI (herbicidal action in percent) [9] [%],Pre-emergence action against STEME [10] [%],Pre-emergence action against ABUTH (herbicidal activity) [11] [%],Pre-emergence action against ECHCG (herbicidal activity) [12] [%],Pre-emergence action against POLCO [13] [%],Post-emergence action against STEME [14],Post-emergence action against ECHCG (herbicidal action in percent) [15] [%],Post-emergence action against MATIN (herbicidal action in percent) [17] [%],"SETVI (Table B8, pre-emergence herbicidal activity) [18] [%]",Post-emergence action against AMARE (herbicidal action in percent) [19] [%],Pre-emergence action against MATIN [20] [%],Post-emergence action against ABUTH (herbicidal action in percent) [21] [%],Post-emergence action against AVEFA (herbicidal action in percent) [22] [%],also measured
CCn1nnnc1NC(=O)c1ccc(S(C)(=O)=O)c(C(C)=O)c1C [2-7],100,80,100,100,100,100,100,100,90,100,100,90,100,100,100,100,100,100,100,100,"Herbicidal efficacy against VIOTR [1, 26]: 100; VIOTR [1, 27]: 100; Herbicidal efficacy against ALOMY [3, 28]: 70; Pre-emergence action against ALOMY (herbicidal activity in percent) [3]: 80%; Herbicidal efficacy against CYPES ([4]; Table V10, pre-emergence): 90; Herbicidal efficacy against CYPES ([4]; Table V11, pre-emergence): 90; Herbicidal efficacy against VIOTR ([8]; Table V12, pre-emergence, 20 g of a.i./ha): 90; SETVI [9, 27]: 90; Herbicidal efficacy against STEME [10, 28]: 90; STEME [14, 27]: 100; Herbicidal efficacy against STEME [14, 29]: 100; Post-emergence action against POLCO [16]: 100; Herbicidal efficacy against MATIN [17, 26]: 100; MATIN [17, 27]: 100; Herbicidal efficacy against SETVI [18, 28]: 80; Herbicidal efficacy against AMARE [19, 29]: 100; Herbicidal efficacy against MATIN [20, 28]: 100; ABUTH [21, 27]: 100; Herbicidal efficacy against ABUTH [21, 29]: 100"
CCCn1nnnc1NC(=O)c1ccc(S(C)(=O)=O)c(C(=O)C2CC2)c1C [3-9],100,100,,100,,100,100,100,,100,100,80,100,100,100,100,100,90,80,100,Post-emergence action against CYPES (herbicidal action in percent) [23]: 80%; Pre-emergence action against AVEFA (herbicidal activity) [24]: 90%
CCn1nnnc1NC(=O)c1ccc(S(C)(=O)=O)c(C(C)=O)c1Cl [2-127],100,100,90,100,100,100,100,90,90,100,100,,100,100,90,90,100,100,100,90,Post-emergence action against CYPES (herbicidal action in percent) [23]: 90%; Pre-emergence action against PHBPU [25]: 90%; Pre-emergence action against AVEFA (herbicidal activity) [24]: 90%
CCCn1nnnc1NC(=O)c1ccc(C(F)(F)F)c(C(C)=O)c1OC [3-48],100,100,90,100,90,80,100,80,90,100,100,80,100,90,100,100,,100,100,,Post-emergence action against CYPES (herbicidal action in percent) [23]: 90%; Pre-emergence action against ALOMY (herbicidal activity in percent) [3]: 90%; Pre-emergence action against PHBPU [25]: 80%; Post-emergence action against POLCO [16]: 80
